Data as given in ChEMBL document CHEMBL1201862, “PubChem BioAssay data set” (2004).
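Compound exposure: 48 hours, 5 concentrations, 96-well plates. GI50 = concentration required for 50% inhibition of growth.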 Calls of active or inactive are those of the source. Cut-off read from the data, not from the text of the source: active = GI50 up to about 1.1 µM and inactive = higher.

Assays:
Assay in all cases: NCI-60 cell line screen, 48 h
[1] = tested on: UACC-257
[2] = tested on: HCT-15
[3] = tested on: EKVX
[4] = tested on: HCC 2998
[5] = tested on: K562
[6] = tested on: HOP-62
[7] = tested on: SK-MEL-5
[8] = tested on: NCI-H23
[9] = tested on: NCI-H522
[10] = tested on: IGROV-1
[11] = tested on: ACHN
[12] = tested on: HT-29
[13] = tested on: OVCAR-5
[14] = tested on: DU-145
[15] = tested on: HL-60
[16] = tested on: OVCAR-4
[17] = tested on: A549
[18] = tested on: PC-3
[19] = tested on: CAKI-1
[20] = tested on: NCI-H460
[21] = tested on: M14
[22] = tested on: UACC-62
[23] = tested on: SNB-19
[24] = tested on: SW-620
[25] = tested on: SK-MEL-2
[26] = tested on: RXF 393
[27] = tested on: SF-539
[28] = tested on: SK-MEL-28
[29] = tested on: Malme-3M
[30] = tested on: OVCAR-3
[31] = tested on: KM12
[32] = tested on: CCRF-CEM
[33] = tested on: COLO 205
[34] = tested on: SF-268
[35] = tested on: MCF7
[36] = tested on: MOLT-4
[37] = tested on: OVCAR-8
[38] = tested on: MDA-MB-231
[39] = tested on: TK-10
[40] = tested on: SF-295
[41] = tested on: UO-31
[42] = tested on: SK-OV-3
[43] = tested on: HOP-92
[44] = tested on: NCI/ADR-RES
[45] = tested on: BT-549
[46] = tested on: MDA-MB-435
[47] = tested on: SR
[48] = tested on: A498
[49] = tested on: T47D
[50] = tested on: Hs-578T
[51] = tested on: SN12C
[52] = tested on: U-251
[53] = tested on: SNB-75
[54] = tested on: NCI-H226
[55] = tested on: LOX IMVI
[56] = tested on: HCT-116
[57] = tested on: RPMI-8226
[58] = tested on: 786-0
[59] = tested on: MDA-N

Measured: GI50

NC(=O)c1ncn2c1CNC(=O)C2
inactive: [1] > 100 µM | [3] > 100 µM | [4] > 100 µM | [5] > 100 µM | [6] > 100 µM | [7] > 100 µM | [8] > 100 µM | [9] > 100 µM | [10] > 100 µM | [11] > 100 µM | [12] > 100 µM | [13] > 100 µM | [14] > 100 µM | [15] > 100 µM | [16] > 100 µM | [17] > 100 µM | [18] > 100 µM | [19] > 100 µM | [20] > 100 µM | [21] > 100 µM | [22] > 100 µM | [23] > 100 µM | [24] > 100 µM | [25] > 100 µM | [26] > 100 µM | [27] > 100 µM | [28] > 100 µM | [29] > 100 µM | [30] > 100 µM | [31] > 100 µM | [32] > 100 µM | [33] > 100 µM | [34] > 100 µM | [35] > 100 µM | [36] > 100 µM | [37] > 100 µM | [38] > 100 µM | [39] > 100 µM | [40] > 100 µM | [41] > 100 µM | [42] > 100 µM | [43] > 100 µM | [44] > 100 µM | [45] > 100 µM | [46] > 100 µM | [47] > 100 µM | [48] > 100 µM | [49] > 100 µM | [50] > 100 µM | [51] > 100 µM | [52] > 100 µM | [53] > 100 µM | [54] > 100 µM
> 100 µM: [2]

O=C1OC(c2ccc([N+](=O)[O-])cc2)=N/C1=C\c1ccc(Cl)cc1
> 100 µM: [2]
inactive: [1] > 100 µM | [3] > 100 µM | [4] > 100 µM | [5] > 100 µM | [6] > 100 µM | [7] > 100 µM | [8] > 100 µM | [9] > 100 µM | [10] > 100 µM | [11] > 100 µM | [12] > 100 µM | [13] 85.1 µM | [14] > 100 µM | [15] > 100 µM | [16] > 100 µM | [17] > 100 µM | [18] > 100 µM | [19] > 100 µM | [20] > 100 µM | [21] > 100 µM | [22] > 100 µM | [55] > 100 µM | [23] > 100 µM | [24] > 100 µM | [25] > 100 µM | [26] 62.8 µM | [27] > 100 µM | [28] > 100 µM | [29] > 100 µM | [30] > 100 µM | [31] > 100 µM | [32] > 100 µM | [33] > 100 µM | [34] > 100 µM | [35] > 100 µM | [36] > 100 µM | [37] > 100 µM | [56] > 100 µM | [57] > 100 µM | [38] > 100 µM | [39] > 100 µM | [58] > 100 µM | [40] > 100 µM | [42] > 100 µM | [43] > 100 µM | [45] > 100 µM | [46] > 100 µM | [47] > 100 µM | [48] > 100 µM | [59] > 100 µM | [49] > 100 µM | [50] > 100 µM | [51] > 100 µM | [52] > 100 µM | [53] > 100 µM | [54] > 100 µM

C[N+](C)(C)CCOP(=O)(O)OP(=O)([O-])OCC1CCC(n2ccc(N)nc2=O)O1 (configuration not stated)
inactive: [3] > 100 µM | [10] > 100 µM | [18] > 100 µM | [23] > 100 µM | [25] > 100 µM | [26] > 100 µM | [32] > 100 µM | [33] > 100 µM | [35] > 100 µM | [36] > 100 µM | [37] > 100 µM | [56] > 100 µM | [38] > 100 µM | [58] > 100 µM | [42] > 100 µM | [44] > 100 µM | [45] > 100 µM | [59] > 100 µM | [49] > 100 µM | [50] > 100 µM | [52] > 100 µM
